Consider 1 compound from patent US20240316215A1, “CONTROLLED DRUG RELEASE MATERIAL” (ADURO MATERIAL AB, priority 2021, published 2024).

One assay relates to breast cancer cell lines. Conditions: read-out: EC50 previously reported; cited from earlier work.
For assay [1], the system named is MCF-7 human breast cancer cells. The experiment in a line: cells. An excerpt:
Cell viability studies are typically conducted on cells that are actively dividing, in the linear range of logarithmic division. However, tumors are typically dense, highly populated 3-dimensional cultures.

As usually defined, the EC50 is the midpoint of the concentration-response curve. As to `NC(=O)NO` [hydroxyurea], the EC50 in the assay with breast cancer cell lines is about 200 µM; in assay [1] (MCF7, MCF-7 cells cultured at 1×10^4/well) it was 200 µM; in assay [1] (MCF7, MCF-7 cells cultured at 2×10^4/well) it was 400 µM; in assay [1] (MCF7, MCF-7 cells cultured at 4×10^4/well), 800 µM; in assay [1] (MCF7, lowest cell concentration, 1×10^4 cells/well), 200 µM.
